Test results as given in patent publication US11292791B2 (priority 2017, dated 2022).

The molecules below were run against BRD4 (Homo sapiens (Human), UniProt O60885). Conditions: read-out: BRD4 IC50 (μM gmean).

SMILES	IC50
COC(=O)N1c2ccc3c(nc([C@@H](C)c4ccccc4)n3C3CCNCC3)c2CC[C@@H]1C [Example 59, methyl (S)-7-methyl-2-((S)-1-phenylethyl)-3-(piperidin-4-yl)-3,7,8,9-tetrahydro-6H-imidazo[4,5-f]quinoline-6-carboxylate]	1 to 1000 µM
COC(=O)N1c2ccc3c(nc(CCn4cccn4)n3CC(=O)NCc3ncccn3)c2CC[C@@H]1C [Example 337]	1 to 1000 µM
COC(=O)N1c2ccc3c(nc(C(=O)Nc4ccccc4Cl)n3[C@@H]3CCC[C@@H](C(=O)O)C3)c2CC[C@@H]1C [Example 961]	1 to 1000 µM
COC(=O)N1c2ccc3c(nc(CCn4cccn4)n3CC(=O)NCc3ncco3)c2CC[C@@H]1C [Example 340]	1 to 1000 µM
COC(=O)N1c2ccc3c(nc(C4(Oc5cnccn5)CC4)n3[C@H]3CC[C@H](C(=O)O)CC3)c2CC[C@@H]1C [Example 823]	1 to 1000 µM
COC(=O)N1c2ccc3c(nc(CCn4ccccc4=O)n3CC(=O)NCC3(C)COC3)c2CC[C@@H]1C [Example 392]	1 to 1000 µM
COC(=O)N1c2ccc3c(nc(CC(C(=O)O)c4ccc(C)cc4)n3C3CCCOC3)c2CC[C@@H]1C (stereo partly drawn) [Example 872]	1 to 1000 µM
COC(=O)N1c2ccc3c(nc(Nc4c(C)n[nH]c4C)n3[C@H]3CC[C@H](C(=O)O)CC3)c2CC[C@@H]1C [Example 909]	1 to 1000 µM
COC(=O)N1c2ccc3c(nc(C(C)Cn4cccn4)n3C3CCCS(=O)(=O)C3)c2CC[C@@H]1C (stereo partly drawn) [Example 860]	1 to 1000 µM
COC(=O)N1c2ccc3c(nc(CC(C(=O)O)c4ccc(C(F)F)cc4)n3C3COCC(F)(F)C3)c2CC[C@@H]1C (stereo partly drawn) [Example 937]	1 to 1000 µM
COC(=O)N1c2ccc3c(nc(CN4CCc5ccccc5C4=O)n3[C@@H]3CCC[C@@H](C(=O)O)C3)c2CC[C@@H]1C [Example 758]	1 to 1000 µM
COC(=O)N1c2ccc3c(nc(CCc4ccncc4)n3C)c2CC[C@@H]1C [Example 14]	1 to 1000 µM
COC(=O)N1c2ccc3c(nc(C(C)C(=O)N4CCCC4)n3C3CCCC(C(=O)O)C3)c2CC[C@@H]1C (stereo partly drawn) [Example 732]	1 to 1000 µM
COC(=O)N1c2ccc3c(nc(CCn4cccn4)n3CCN3CC4(COC4)C3)c2CC[C@@H]1C [Example 228]	1 to 1000 µM
COC(=O)N1c2ccc3c(nc(CC(C(=O)O)c4ccc(C(F)F)cc4)n3C3CCCOC3)c2CC[C@@H]1C (stereo partly drawn) [Example 902]	1 to 1000 µM
COC(=O)N1c2ccc3c(nc(Cc4ccc(F)c(F)c4)n3[C@@H]3CCC[C@@H](C(=O)O)C3)c2CC[C@@H]1C [Example 502]	1 to 1000 µM
COC(=O)N1c2ccc3c(nc(CCc4cnn(C)c4)n3[C@H]3CC[C@H](C(=O)O)CC3)c2CC[C@@H]1C [Example 34]	1 to 1000 µM
COC(=O)N1c2ccc3c(nc(Cn4ccccc4=O)n3C3CCOCC3)c2CC[C@@H]1C [Example 259]	1 to 1000 µM
COC(=O)N1c2ccc3c(nc(CC(C(=O)O)c4ccccc4)n3C3CCCC(OC)C3)c2CC[C@@H]1C (stereo partly drawn) [Example 455]	1 to 1000 µM
CCC(O)(c1ccccc1)c1nc2c3c(ccc2n1[C@@H]1CCC[C@@H](C(=O)O)C1)N(C(=O)OC)[C@@H](C)CC3 (stereo partly drawn) [Example 534]	1 to 1000 µM
COC(=O)N1c2ccc3c(nc(Cc4ccc(OC(F)F)cc4)n3[C@H]3CC[C@H](C(=O)O)CC3)c2CC[C@@H]1C [Example 544]	1 to 1000 µM
COC(=O)N1c2ccc3c(nc(Cc4ccc(C)c(F)c4)n3[C@@H]3CCC[C@@H](C(=O)O)C3)c2CC[C@@H]1C [Example 471]	1 to 1000 µM

SMILES	IC50
COC(=O)[C@@H]1CCC[C@@H](n2c(Cc3ccccc3)nc3c4c(ccc32)N(C(=O)OC)[C@@H](C)CC4)C1 [Example 840]	1 to 1000 µM
COC(=O)N1c2ccc3c(nc(C(C)Cn4cc(C)cn4)n3C3CCS(=O)(=O)C3)c2CC[C@@H]1C (stereo partly drawn) [Example 834]	1 to 1000 µM
COC(=O)N1c2ccc3c(nc(C(C)CC4CCOCC4)n3C3CCCC(C(=O)O)C3)c2CC[C@@H]1C (stereo partly drawn) [Example 622]	1 to 1000 µM
COC(=O)N1c2ccc3c(nc(Cc4ccc(OC)c(OC)c4)n3[C@@H]3CCC[C@@H](C(=O)O)C3)c2CC[C@@H]1C [Example 641]	1 to 1000 µM
COC(=O)N1c2ccc3c(nc(CC(C(=O)O)c4cccc5ccccc45)n3C3CCCOC3)c2CC[C@@H]1C (stereo partly drawn) [Example 580]	1 to 1000 µM
COC(=O)N1c2ccc3c(nc(Cc4ccccc4)n3[C@H]3CCC34CCNCC4)c2CC[C@@H]1C [Example 111, methyl (S)-2-benzyl-7-methyl-3-((S)-7-azaspiro[3.5]nonan-1-yl)-3,7,8,9-tetrahydro-6H-imidazo[4,5-f]quinoline-6-carboxylate]	1 to 1000 µM
COC(=O)N1c2ccc3c(nc(Cc4ccccc4)n3C3CC4(CNC4)C3)c2CC[C@@H]1C [Example 94]	1 to 1000 µM
COC(=O)N1c2ccc3c(nc(COC4CCOCC4)n3[C@H]3CC[C@H](C(=O)O)CC3)c2CC[C@@H]1C [Example 759]	1 to 1000 µM
COC(=O)N1c2ccc3c(nc(C(=O)N(C)C4CCCC4)n3[C@@H]3CCC[C@@H](C(=O)O)C3)c2CC[C@@H]1C [Example 923]	1 to 1000 µM
COC(=O)N1c2ccc3c(nc(C[C@H]4CC[C@H](OC)CC4)n3[C@@H]3CCC[C@@H](C(=O)O)C3)c2CC[C@@H]1C [Example 723]	1 to 1000 µM
COC(=O)N1c2ccc3c(nc(CCn4ccccc4=O)n3CC(=O)N(C)C3CCOCC3)c2CC[C@@H]1C [Example 384]	1 to 1000 µM
COC(=O)N1c2ccc3c(nc(CC4CCCOC4)n3C3CCCC(C(=O)O)C3)c2CC[C@@H]1C (stereo partly drawn) [Example 806]	1 to 1000 µM
COC(=O)N1c2ccc3c(nc(CCn4cccn4)n3CC(=O)NCc3ncnn3C)c2CC[C@@H]1C [Example 371]	1 to 1000 µM
COC(=O)N1c2ccc3c(nc(CCn4cccn4)n3CC(=O)NCc3cnn(C)c3)c2CC[C@@H]1C [Example 344]	1 to 1000 µM
COC(=O)N1c2ccc3c(nc(Cc4ccccc4)n3C3CCNCC3)c2CC[C@@H]1C [Example 90]	1 to 1000 µM
COC(=O)N1c2ccc3c(nc(Cc4ccccc4C(=O)O)n3C3CCCCC3)c2CC[C@@H]1C [Example 555]	1 to 1000 µM
COC(=O)N1c2ccc3c(nc(Cc4cccc(F)c4OC)n3[C@H]3CC[C@H](C(=O)O)CC3)c2CC[C@@H]1C [Example 661]	1 to 1000 µM
COC(=O)N1c2ccc3c(nc(CC(C(=O)O)c4ccc(C(F)F)cc4)n3C3CCCOC3)c2CC[C@@H]1C (stereo partly drawn) [Example 524]	1 to 1000 µM
COC(=O)N1c2ccc3c(nc(CCn4ccccc4=O)n3CCNC[C@H]3CCCO3)c2CC[C@@H]1C [Example 319]	1 to 1000 µM
COC(=O)N1c2ccc3c(nc(Nc4ccccc4)n3[C@H]3CC[C@H](C(=O)O)CC3)c2CC[C@@H]1C [Example 843]	1 to 1000 µM
COC(=O)N1c2ccc3c(nc(CCn4ccccc4=O)n3CC(=O)N(C)[C@H]3CCOC3)c2CC[C@@H]1C [Example 387]	1 to 1000 µM
COC(=O)N1c2ccc3c(nc(CCn4ccccc4=O)n3CC(=O)N3CCC(O)CC3)c2CC[C@@H]1C [Example 381]	1 to 1000 µM

SMILES	IC50
COC(=O)N1c2ccc3c(nc(CN4C(=O)CCc5ccccc54)n3[C@@H]3CCC[C@@H](C(=O)O)C3)c2CC[C@@H]1C [Example 789]	1 to 1000 µM
COC(=O)N1c2ccc3c(nc(Cn4ccccc4=O)n3[C@H]3CC[C@H](O)CC3)c2CC[C@@H]1C [Example 71]	1 to 1000 µM
COC(=O)N1c2ccc3c(nc(CC(C(=O)O)c4cccc(C)c4)n3C3CCCOC3)c2CC[C@@H]1C (stereo partly drawn) [Example 885]	1 to 1000 µM
COC(=O)N1c2ccc3c(nc(CCn4ccccc4=O)n3CC(=O)NCc3ccncn3)c2CC[C@@H]1C [Example 373]	1 to 1000 µM
COC(=O)N1c2ccc3c(nc(CCn4cccn4)n3CCN(C)C3CCOCC3)c2CC[C@@H]1C [Example 301]	1 to 1000 µM
COC(=O)N1c2ccc3c(nc(CCc4ccccc4)n3CCN3CCOCC3)c2CC[C@@H]1C [Example 245]	1 to 1000 µM
COC(=O)N1c2ccc3c(nc(C(O)c4cc5c(cn4)OCC5)n3C3CCCC(C(=O)O)C3)c2CC[C@@H]1C (stereo partly drawn) [Example 636]	1 to 1000 µM
COC(=O)N1c2ccc3c(nc(CCn4cccn4)n3CC(=O)NC3CCOCC3)c2CC[C@@H]1C [Example 358]	1 to 1000 µM
COC(=O)N1c2ccc3c(nc(CCn4cccn4)n3CCN3CC[C@H](NC(C)=O)C3)c2CC[C@@H]1C [Example 310]	1 to 1000 µM
COC(=O)N1c2ccc3c(nc(Cc4ccccc4)n3C34CCC(C(=O)O)(CC3)C4)c2CC[C@@H]1C [Example 24]	1 to 1000 µM
COC(=O)N1c2ccc3c(nc(CCn4ccccc4=O)n3CC(=O)N3CC[C@H](O)C3)c2CC[C@@H]1C [Example 399]	1 to 1000 µM
COC(=O)N1c2ccc3c(nc(CCn4ccccc4=O)n3CCCS(C)(=O)=O)c2CC[C@@H]1C [Example 261]	1 to 1000 µM
COC(=O)N1c2ccc3c(nc(CCn4cccn4)n3CC(=O)N(C)CCO)c2CC[C@@H]1C [Example 350]	1 to 1000 µM
COC(=O)N1c2ccc3c(nc(OCCc4ccccc4)n3[C@H]3CC[C@H](C(=O)O)CC3)c2CC[C@@H]1C [Example 807]	1 to 1000 µM
COC(=O)N1c2ccc3c(nc(Cc4cc(Cl)cc(OC)c4)n3[C@H]3CC[C@H](C(=O)O)CC3)c2CC[C@@H]1C [Example 656]	1 to 1000 µM
COC(=O)N1c2ccc3c(nc(CCn4cccn4)n3CC(=O)NCC(=O)N(C)C)c2CC[C@@H]1C [Example 354]	1 to 1000 µM
COC(=O)N1c2ccc3c(nc(Cc4cc(Cl)cc(OC)c4)n3[C@@H]3CCC[C@@H](C(=O)O)C3)c2CC[C@@H]1C [Example 512]	1 to 1000 µM
COC(=O)N1c2ccc3c(nc(CC(C(=O)O)c4ccc(C(F)F)cc4)n3C3COCC(F)(F)C3)c2CC[C@@H]1C (stereo partly drawn) [Example 629]	1 to 1000 µM
COC(=O)N1c2ccc3c(nc(Cc4ccc(C(F)(F)F)nn4)n3[C@@H]3CCC[C@@H](C(=O)O)C3)c2CC[C@@H]1C [Example 777]	1 to 1000 µM
COC(=O)N1c2ccc3c(nc(CCC4CC4)n3CCN3CCOCC3)c2CC[C@@H]1C [Example 251]	1 to 1000 µM
COC(=O)N1c2ccc3c(nc(C(C)Cn4ccc(C)n4)n3C3CCC(C(=O)O)CC3)c2CC[C@@H]1C (stereo partly drawn) [Example 526]	1 to 1000 µM
COC(=O)N1c2ccc3c(nc(Cc4ccccc4)n3C3CC4(CCNCC4)C3)c2CC[C@@H]1C [Example 95]	1 to 1000 µM
